This passage reports IC50 and inhibition results from US8796244B2, “Imidazopyridine derivatives as inhibitors of receptor tyrosine kinases” (Astex Therapeutics Ltd, priority 2008, dated 2014).

Assay [1] concerns parental wild-type Ba/F3 cells. The assay is described as follows: Ba/F3 (WT) cell proliferation assay (Alamar Blue). Format: cell-based. Conditions: Mus musculus.
In assay [2] the test system is LP-1 cell line (FGF-1/Heparin induced pERK). The assay is described as follows: Cell-based pERK ELISA, LP-1 cells. The following applies: Homo sapiens; for IC50: LP-1, read-out: LP-1 pERK ELISA (μM).
[3] abbreviates: BaF3, 72 hours, Alamar Blue, read-out: BaF3 WT prolif.
[4] abbreviates: BaF3, 72 h, read-out: BaF3 WT prolif (μM).
Where [5] appears, read: BaF3, read-out: BaF3 WT prolif, % inhibition.
Where [6] appears, read: LP-1, read-out: LP-1 pERK ELISA, % inhibition.

Counter-ions that a name gives are not always drawn. Like-named read-outs stand apart in the source and are kept apart here.

For `CN1CCC(n2cc(-c3ccn4c(-c5cccc(NC(=O)NCC(F)(F)F)c5)cnc4c3)cn2)CC1` [Example 6, 1-(3-{7-[1-(1-Methyl-piperidin-4-yl)-1H-pyrazol-4-yl]imidazo[1,2-a]pyridin-3-yl}phenyl)-3-(2,2,2-trifluoroethyl)urea], the IC50 turned out to be 0.87 µM in assay [1] (setting [3]) and 0.0092 µM in assay [2].

As to `O=C(NCC(F)(F)F)Nc1cccc(-c2cnc3cc(-c4ccc(F)cn4)ccn23)c1` [Example 96, 1-{3-[7-(5-Fluoro-pyridin-2-yl)-imidazo[1,2-a]pyridin-3-yl]-phenyl}-3-(2,2,2-trifluoro-ethyl)-urea bis-hydrochloride], the IC50 in assay [1] (setting [4]) was 1.7 µM; in assay [2], 0.0063 µM.

In the case of `O=C(NCC(F)(F)F)Nc1cccc(-c2cnc3cc(-c4nc5c(s4)CCC5)ccn23)c1` [Example 8, 1-{3-[7-(5,6-Dihydro-4H-cyclopentathiazol-2-yl)imidazo[1,2-a]pyridin-3-yl]-phenyl}-3-(2,2,2-trifluoroethyl)urea], the IC50 was found to be 0.45 µM in assay [1] (setting [3]) and 0.012 µM in assay [2].

As for `Cc1ccnc(-c2ccn3c(-c4cccc(NC(=O)NCC(F)(F)F)c4)cnc3c2)c1` [Example 97, 1-{3-[7-(4-Methyl-pyridin-2-yl)-imidazo[1,2-a]pyridin-3-yl]-phenyl}-3-(2,2,2-trifluoro-ethyl)-urea bis-hydrochloride], the IC50 in assay [1] (setting [4]) is 0.44 µM; in assay [2], 0.0081 µM.

As to `O=C(NCC(F)(F)F)Nc1cccc(-c2cnc3cc(/C=C/c4ccccn4)ccn23)c1` [Example 186], the IC50 in assay [1] (setting [3]) is 0.32 µM; in assay [2] it was 0.019 µM.

As to `O=C(NCC(F)(F)F)Nc1cccc(-c2cnc3cc(C#Cc4ccsc4)ccn23)c1` [Example 16, 1-[3-(7-Thiophen-3-ylethynylimidazo[1,2-a]pyridinyl)phenyl]-3-(2,2,2-trifluoroethyl)urea], the IC50 stood at 0.83 µM in assay [1] (setting [3]) and 0.11 µM in assay [2].

`O=C(NCC(F)(F)F)Nc1cccc(-c2cnc3cc(-c4ccc(CO)cn4)ccn23)c1` [Example 92, 1-{3-[7-(5-Hydroxymethyl-pyridin-2-yl)-imidazo[1,2-a]pyridin-3-yl]-phenyl}-3-(2,2,2-trifluoro-ethyl)-urea formate]: the IC50 was 0.53 µM in assay [1] (setting [4]) and 0.11 µM in assay [2].

With `O=C1CN(c2ncc(-c3ccn4c(-c5cccc(NC(=O)NCC(F)(F)F)c5)cnc4c3)cn2)CCN1` [Example 94, 1-(3-{7-[2-(3-Oxo-piperazin-1-yl)-pyrimidin-5-yl]-imidazo[1,2-a]pyridin-3-yl}-phenyl)-3-(2,2,2-trifluoro-ethyl)-urea hydrochloride], the IC50 came to 5.8 µM in assay [1] (setting [4]) and 0.95 µM in assay [2].

Take `CCOC(=O)C(C)(C)n1cc(-c2ccn3c(-c4cccc(NC(=O)NCC(F)(F)F)c4)cnc3c2)cn1` [Example 2, 2-Methyl-2-[4-(3-{3-[3-(2,2,2-trifluoroethyl)ureido]phenyl}imidazo [1,2-a]pyridin-7-yl)pyrazol-1-yl] propionic acid ethyl ester]: the inhibition at 10 µM in assay [1] (setting [5]) worked out at 12%. In addition, the inhibition at 0.003 µM in assay [2] (setting [6]) turned out to be 62%.

Regarding `NC(=O)Nc1cccc(-c2cnc3cc(-c4ncc(F)c(N)n4)ccn23)c1` [Example 167], the inhibition at 10 µM in assay [1] (setting [5]) is 0%; in assay [2] (setting [6]), 60%.

For `O=C(NCC(F)(F)F)Nc1cccc(-c2cnc3cc(-c4cccnc4)ccn23)c1` [Example 78, 1-[3-(7-Pyridin-3-yl-imidazo[1,2-a]pyridin-3-yl)-phenyl]-3-(2,2,2-trifluoro-ethyl)-urea], the IC50 came out at 0.15 µM in assay [1] (setting [3]) and 0.017 µM in assay [2].

For `COc1cnc(-c2ccn3c(-c4cccc(NC(=O)NCC(F)(F)F)c4)cnc3c2)nc1` [Example 138, 1-{3-[7-(5-Methoxy-pyrimidin-2-yl)-imidazo[1,2-a]pyridin-3-yl]-phenyl}-3-(2,2 ,2-trifluoro-ethyl)-urea], in assay [1] (setting [5]), the inhibition at 3 µM was 36%. The IC50 in assay [2] is 0.038 µM.

Regarding `O=C(NCC(F)(F)F)Nc1cccc(-c2cnc3cc(-c4ccc(N5CCCCC5)nn4)ccn23)c1` [Example 7, 1-{3-[7-(6-Piperidin-1-yl-pyridazin-3-yl)-imidazo[1,2-a]pyridin-3-yl]phenyl}-3-(2,2,2-trifluoroethyl)urea], the IC50 in assay [1] (setting [3]) was found to be 0.86 µM; in assay [2], 0.0063 µM.

Regarding `O=C(NCC(F)(F)F)Nc1cccc(-c2cnc3cc(-c4ccc(N5CCCCC5)nc4)ccn23)c1` [Example 49, 1-{3-[7-(3,4,5,6-Tetrahydro-2H-[1,2′]bipyridinyl-5′-yl)-imidazo[1,2-a]pyridin-3-yl]-phenyl}-3-(2,2,2-trifluoro-ethyl)-urea hydrochloride], the IC50 is 0.29 µM in assay [1] (setting [4]) and 0.017 µM in assay [2].

Take `O=C(NCC(F)(F)F)Nc1cccc(-c2cnc3cc(C#CCO)ccn23)c1` [Example 26, 1-{3-[7-(3-Hydroxyprop-1-ynyl)imidazo[1,2-a]pyridin-3-yl]phenyl}-3-(2,2,2-trifluoroethyl)urea]: the IC50 in assay [1] (setting [3]) was determined as 0.77 µM; in assay [2], 0.27 µM.

Take `COc1ccc(-c2ccn3c(-c4cccc(NC(=O)NCC(F)(F)F)c4)cnc3c2)nn1` [Example 51, 1-{3-[7-(6-Methoxy-pyridazin-3-yl)-1,7-imidazo[1,2-a]pyridin-3-yl]-phenyl}-3-(2,2,2-trifluoro-ethyl)-urea]: the inhibition at 10 µM in assay [1] (setting [5]) stood at 10%. The IC50 in assay [2] is 0.015 µM.

With `Cc1cnc(-c2ccn3c(-c4cccc(NC(=O)NCC(F)(F)F)c4)cnc3c2)nc1` [Example 58, 1-{3-[7-(5-Methyl-pyrimidin-2-yl)-imidazo[1,2-a]pyridin-3-yl]-phenyl}-3-(2,2,2-trifluoro-ethyl)-urea hydrochloride], the IC50 in assay [1] (setting [4]) came to 0.7 µM; in assay [2], 0.077 µM.

In the case of `O=C(NCC(F)(F)F)Nc1cccc(-c2cnc3cc(-c4ccc(N5CCC5)nn4)ccn23)c1` [Example 82, 1-{3-[7-(6-Azetidin-1-yl-pyridazin-3-yl)-imidazo[1,2-a]pyridin-3-yl]-phenyl}-3-(2,2,2-trifluoro-ethyl)-urea hydrochloride], the IC50 in assay [2] came out at 0.0067 µM.

In the case of `O=C(NCC(F)(F)F)Nc1cccc(-c2cnc3cc(C#Cc4cccnc4)ccn23)c1` [Example 11, 1-[3-(7-Pyridin-3-ylethynylimidazo[1,2-a]pyridin-3-yl)phenyl]-3-(2,2,2-trifluoroethyl)urea], the IC50 in assay [2] is 0.032 µM.

Turning to `O=C(NCC(F)(F)F)Nc1cccc(-c2cnc3cc(-c4ccncc4)ccn23)c1` [Example 83, 1-[3-(7-Pyridin-4-yl-imidazo[1,2-a]pyridin-3-yl)-phenyl]-3-(2,2,2-trifluoro-ethyl)-urea], the IC50 in assay [2] worked out at 0.012 µM.

For the molecule `Cc1cc(=O)n2nc(-c3ccn4c(-c5cccc(NC(=O)NCC(F)(F)F)c5)cnc4c3)sc2n1` [Example 27, 1-{3-[7-(7-Methyl-5-oxo-5H-[1,3,4]thiadiazolo[3,2-a]pyrimidin-2-yl)imidazo[1,2-a]pyridin-3-yl]phenyl}-3-(2,2,2-trifluoroethyl)urea], the IC50 in assay [2] worked out at 0.52 µM.

Turning to `Nc1ccn2c(-c3cccc(NC(=O)NCC(F)(F)F)c3)cnc2c1` [Example 115, 1-[3-(7-Aminoimidazol[1,2-a]pyridin-3-yl)phenyl]-3-(2,2,2-trifluoroethyl)urea], the inhibition at 10 µM in assay [2] (setting [6]) was determined as 0%.

As for `Cn1cc(-c2ccn3c(-c4cccc(NC(=O)NCC(F)(F)F)c4)cnc3c2)c(CN)n1` [Example 57, 1-{3-[7-(3-Aminomethyl-1-methyl-1H-pyrazol-4-yl)-imidazo[1,2-a]pyridin-3-yl]-phenyl}-3-(2,2,2-trifluoro-ethyl)-urea], in assay [2] (setting [6]), the inhibition at 3 µM was determined as 40%.
